The record followed here is publication PMC6421026, “Interaction of Anticancer Drugs with Human Organic Anion Transporter hOAT4” (Journal of Oncology, 2019).

Broadly, the Ki is a measure of affinity in units of concentration, obtained from inhibition or displacement. Read a high Ki as lower affinity.

Structures can show the parent of a compound that is named as a salt.

The target in experiment [1] is T1, human organic anion transporter 4 (hOAT4) (Homo sapiens, UniProt Q9NSA0).
T1 construct: gene SLC22A11
T1 sequence (Q9NSA0 1-550): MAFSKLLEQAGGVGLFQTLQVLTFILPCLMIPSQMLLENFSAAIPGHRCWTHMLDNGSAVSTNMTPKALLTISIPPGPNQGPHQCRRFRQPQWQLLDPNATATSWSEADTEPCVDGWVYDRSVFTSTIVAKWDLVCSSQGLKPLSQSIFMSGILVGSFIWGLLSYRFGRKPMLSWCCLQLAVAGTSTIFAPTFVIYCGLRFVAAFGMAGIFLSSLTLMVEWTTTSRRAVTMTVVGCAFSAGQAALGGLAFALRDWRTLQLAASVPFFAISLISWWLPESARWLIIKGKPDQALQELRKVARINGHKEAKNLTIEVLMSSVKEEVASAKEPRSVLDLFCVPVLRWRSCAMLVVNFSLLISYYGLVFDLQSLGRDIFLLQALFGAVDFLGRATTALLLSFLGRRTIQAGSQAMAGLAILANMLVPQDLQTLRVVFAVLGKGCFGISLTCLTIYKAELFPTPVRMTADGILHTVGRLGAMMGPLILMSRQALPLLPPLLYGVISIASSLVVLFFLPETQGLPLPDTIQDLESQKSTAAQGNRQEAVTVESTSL
Briefly: inhibition of [3H]-estrone sulfate uptake in stable hOAT4-expressing COS-7 cells, Dixon plot (IC50 […]); trans-inhibition. Format: cell-based.

The target of experiment [2] is T1, human organic anion transporter 4 (hOAT4). Briefly: inhibition of [3H]-estrone sulfate uptake in stable hOAT4-expressing COS-7 cells, Dixon plot (IC50 […]). Format: cell-based.

Regarding `CC(C)(C)c1nc(-c2cccc(NS(=O)(=O)c3c(F)cccc3F)c2F)c(-c2ccnc(N)n2)s1` [Dab, dabrafenib mesylate], the Ki in experiment [1] stood at 4.26 µM.
For `COc1cccc2c1C(=O)c1c(O)c3c(c(O)c1C2=O)C[C@@](O)(C(=O)CO)C[C@@H]3O[C@H]1C[C@H](N)[C@@H](O)[C@H](C)O1` [epirubicin hydrochloride], affinity in experiment [2] was put at a Ki of 3 µM.
